{"source": "the Deep4Chem optical property database", "test": "solvent given as SMILES", "data": [{"smiles": "c1ccc2cc3cc(-c4cc(-c5nccs5)nc(-c5nccs5)c4)ccc3cc2c1", "values": [{"measurement": "fluorescence lifetime", "setting": "in CC#N", "value": 6.92, "unit": "ns"}, {"measurement": "fluorescence lifetime", "setting": "in CCCCCC", "value": 3.35, "unit": "ns"}, {"measurement": "fluorescence lifetime", "setting": "in CO", "value": 4.04, "unit": "ns"}, {"measurement": "fluorescence lifetime", "setting": "in ClC(Cl)Cl", "value": 4.22, "unit": "ns"}]}, {"smiles": "O=C(O)c1ccc(C(=O)O)c2cc3ccccc3cc12", "values": [{"measurement": "fluorescence lifetime", "setting": "in C1CCOC1", "value": 19.2, "unit": "ns"}, {"measurement": "fluorescence lifetime", "setting": "in CN(C)C=O", "value": 12.5, "unit": "ns"}]}, {"smiles": "Cc1cc(C(F)(F)F)nc2c1ccc1nc(-c3ccc(Cl)cc3)cn12", "values": [{"measurement": "fluorescence lifetime", "setting": "in CC#N", "value": 8.1, "unit": "ns"}, {"measurement": "fluorescence lifetime", "setting": "in CCCCOC(C)=O", "value": 6.83, "unit": "ns"}, {"measurement": "fluorescence lifetime", "setting": "in CCOC(C)=O", "value": 6.72, "unit": "ns"}, {"measurement": "fluorescence lifetime", "setting": "in CO", "value": 7.89, "unit": "ns"}, {"measurement": "fluorescence lifetime", "setting": "in c1ccccc1", "value": 6.26, "unit": "ns"}]}, {"smiles": "CCCCCCN1C(=O)c2cccc3cc(/N=C\\c4ccc5c(c4)c4ccccc4n5CC)cc(c23)C1=O", "values": [{"measurement": "fluorescence lifetime", "setting": "in ClC(Cl)Cl", "value": 8.97, "unit": "ns"}]}, {"smiles": "CCCN1C(=O)c2c3c(c4c(c2C1=O)CCc1cc(-c2ccc(N(C)C)cc2)c(OC)cc1-4)-c1cc(OC)c(-c2ccc(N(C)C)cc2)cc1CC3", "values": [{"measurement": "fluorescence lifetime", "setting": "in C1CCCCC1", "value": 5.13, "unit": "ns"}, {"measurement": "fluorescence lifetime", "setting": "in C1CCOC1", "value": 0.93, "unit": "ns"}, {"measurement": "fluorescence lifetime", "setting": "in CCOC(C)=O", "value": 0.85, "unit": "ns"}, {"measurement": "fluorescence lifetime", "setting": "in Cc1ccccc1", "value": 5.64, "unit": "ns"}, {"measurement": "fluorescence lifetime", "setting": "in ClCCl", "value": 0.38, "unit": "ns"}]}, {"smiles": "Clc1ccc(/C=C/c2nc3ccccc3o2)cc1", "values": [{"measurement": "fluorescence lifetime", "setting": "in C1CCCCC1", "value": 0.2, "unit": "ns"}, {"measurement": "fluorescence lifetime", "setting": "in CO", "value": 0.16, "unit": "ns"}]}, {"smiles": "COc1ccc(-c2nc3c(c4c2-c2ccccc2CC4)-c2ccccc2CC3)cc1", "values": [{"measurement": "fluorescence lifetime", "setting": "in CC#N", "value": 1.44, "unit": "ns"}, {"measurement": "fluorescence lifetime", "setting": "in CCCCCC", "value": 0.45, "unit": "ns"}, {"measurement": "fluorescence lifetime", "setting": "in CO", "value": 0.36, "unit": "ns"}, {"measurement": "fluorescence lifetime", "setting": "in CS(C)=O", "value": 0.67, "unit": "ns"}, {"measurement": "fluorescence lifetime", "setting": "in ClCCl", "value": 0.25, "unit": "ns"}]}, {"smiles": "COC(=O)c1cc(=O)n(C)c2cc(-c3ccc4c(c3)OCO4)sc12", "values": [{"measurement": "fluorescence lifetime", "setting": "in ClCCl", "value": 1.72, "unit": "ns"}]}, {"smiles": "CC(C)(C)c1ccc(Oc2c3c4c(cc(Oc5ccc(C(C)(C)C)cc5)c5c6c(Oc7ccc(C(C)(C)C)cc7)c(Oc7ccc(C(C)(C)C)cc7)c7c8c(cc(Oc9ccc(C(C)(C)C)cc9)c(c(c2Oc2ccc(C(C)(C)C)cc2)c45)c86)C(=O)OC7=O)C(=O)OC3=O)cc1", "values": [{"measurement": "fluorescence lifetime", "setting": "in ClC(Cl)Cl", "value": 6, "unit": "ns"}]}, {"smiles": "CC1=C(c2ccc(N(c3ccccc3)c3ccccc3)cc2)C(C)=[N+]2C1=C(c1c(-c3ccccn3)nc3ccccn13)c1c(C)cc(C)n1[B-]2(F)F", "values": [{"measurement": "fluorescence lifetime", "setting": "in ClCCl", "value": 0.2, "unit": "ns"}]}, {"smiles": "CN(C)c1ccc(C2=Nc3scc(-c4ccc(C#N)cc4)[n+]3[B-](F)(F)O2)cc1", "values": [{"measurement": "fluorescence lifetime", "setting": "in C1CCOC1", "value": 1.69, "unit": "ns"}]}, {"smiles": "c1cc2c3c(c1)-c1cccc4cccc(c14)B3c1cccc3cccc-2c13", "values": [{"measurement": "fluorescence lifetime", "setting": "in Cc1ccccc1", "value": 6.31, "unit": "ns"}]}, {"smiles": "NS(=O)(=O)c1ccc(N2N=C(c3ccc(O)cc3)CC2c2ccccc2)cc1", "note": "(stereo not drawn)", "values": [{"measurement": "fluorescence lifetime", "setting": "in C1CCOC1", "value": 2.31, "unit": "ns"}, {"measurement": "fluorescence lifetime", "setting": "in C1COCCO1", "value": 2.36, "unit": "ns"}, {"measurement": "fluorescence lifetime", "setting": "in CC#N", "value": 2.38, "unit": "ns"}, {"measurement": "fluorescence lifetime", "setting": "in CC(C)O", "value": 1.86, "unit": "ns"}, {"measurement": "fluorescence lifetime", "setting": "in CCO", "value": 1.93, "unit": "ns"}, {"measurement": "fluorescence lifetime", "setting": "in CCOC(C)=O", "value": 2.27, "unit": "ns"}, {"measurement": "fluorescence lifetime", "setting": "in CN(C)C=O", "value": 2.4, "unit": "ns"}, {"measurement": "fluorescence lifetime", "setting": "in CO", "value": 1.62, "unit": "ns"}, {"measurement": "fluorescence lifetime", "setting": "in CS(C)=O", "value": 2.45, "unit": "ns"}, {"measurement": "fluorescence lifetime", "setting": "in O", "value": 3.16, "unit": "ns"}]}, {"smiles": "BrCCCCCCCCCCCCOc1cc2ccc3cccc4ccc(c1)c2c34", "values": [{"measurement": "fluorescence lifetime", "setting": "in Cc1ccccc1", "value": 60, "unit": "ns"}]}, {"smiles": "Cc1cccc2c3ccccc3n(-c3ccc(-c4c(-c5ccccc5)c(C#N)c(C#N)c(-c5ccccc5)c4-c4ccc(-n5c6ccccc6c6cccc(C)c65)cc4)cc3)c12", "values": [{"measurement": "fluorescence lifetime", "setting": "in O=P(c1ccccc1)(c1ccccc1)c1ccc2oc3ccc(P(=O)(c4ccccc4)c4ccccc4)cc3c2c1", "value": 41, "unit": "ns"}]}, {"smiles": "c1ccc(/C(=C(\\c2ccccc2)c2ccccc2-c2ccc(-c3ccccc3)cc2)c2ccccc2-c2ccc(-c3ccccc3)cc2)cc1", "values": [{"measurement": "fluorescence lifetime", "setting": "in C1CCOC1", "value": 7, "unit": "ns"}]}, {"smiles": "CC(=O)c1nc(-c2ccc(N(C)C)cc2)oc1C", "values": [{"measurement": "fluorescence lifetime", "setting": "in CC#N", "value": 1.91, "unit": "ns"}, {"measurement": "fluorescence lifetime", "setting": "in CCO", "value": 1.66, "unit": "ns"}, {"measurement": "fluorescence lifetime", "setting": "in CCOC(C)=O", "value": 1.87, "unit": "ns"}, {"measurement": "fluorescence lifetime", "setting": "in CCOCC", "value": 1.64, "unit": "ns"}, {"measurement": "fluorescence lifetime", "setting": "in ClCCl", "value": 3.68, "unit": "ns"}]}, {"smiles": "COc1cc2c(cc1-c1ccsc1)Cc1c3c(c4c(c1-2)-c1cc(OC)c(-c2ccsc2)cc1C4)C(=O)N(CCC(C)C)C3=O", "values": [{"measurement": "fluorescence lifetime", "setting": "in C1CCOC1", "value": 3.42, "unit": "ns"}]}, {"smiles": "CN(C)c1ccc2nc(-c3ccc(/C=N/c4ccccc4)cc3)sc2c1", "values": [{"measurement": "fluorescence lifetime", "setting": "in C1CCCCC1", "value": 2.2, "unit": "ns"}]}, {"smiles": "Cc1sc(-c2ccc(-c3nc(-c4ccccc4)c(-c4ccccc4)[nH]3)cc2)c(C)c1C1=C(c2c(C)n(C)c3ccccc23)C(F)(F)C(F)(F)C1(F)F", "values": [{"measurement": "fluorescence lifetime", "setting": "in C1CCOC1", "value": 0.48, "unit": "ns"}]}, {"smiles": "O=C([O-])c1c2ccccc2c(C(=O)[O-])c2ccccc12", "values": [{"measurement": "fluorescence lifetime", "setting": "in CN(C)C=O", "value": 2.2, "unit": "ns"}]}, {"smiles": "Cn1c(-c2ccc(-c3nc(-c4ccccc4)c(-c4ccccc4)n3C)s2)nc(-c2ccccc2)c1-c1ccccc1", "values": [{"measurement": "fluorescence lifetime", "setting": "in CC#N", "value": 1.24, "unit": "ns"}]}, {"smiles": "C/C=C/c1ccc(OC)c(OC)c1", "values": [{"measurement": "fluorescence lifetime", "setting": "in CC#N", "value": 4, "unit": "ns"}, {"measurement": "fluorescence lifetime", "setting": "in CCCCCC", "value": 3.7, "unit": "ns"}]}, {"smiles": "CCCCCCN(CCCCCC)c1ccc(C#Cc2ccc(C#N)cc2)cc1", "values": [{"measurement": "fluorescence lifetime", "setting": "in CC#N", "value": 1, "unit": "ns"}, {"measurement": "fluorescence lifetime", "setting": "in CO", "value": 1, "unit": "ns"}, {"measurement": "fluorescence lifetime", "setting": "in ClCCl", "value": 2.8, "unit": "ns"}]}, {"smiles": "COC(=O)c1c(C(=O)OC)c2ccc(-c3ccccc3)nn2c1C", "values": [{"measurement": "fluorescence lifetime", "setting": "in CCCCCC", "value": 21, "unit": "ns"}]}, {"smiles": "COCCN1C(=O)/C(=C/c2cccc(N(C)C)c2)N=C1C", "values": [{"measurement": "fluorescence lifetime", "setting": "in C1CCOC1", "value": 14.7, "unit": "ns"}, {"measurement": "fluorescence lifetime", "setting": "in CC#N", "value": 7.9, "unit": "ns"}, {"measurement": "fluorescence lifetime", "setting": "in CCCCCC", "value": 21.2, "unit": "ns"}]}, {"smiles": "c1ccc(N(c2ccccc2)c2c3ccccc3cc3ccccc23)cc1", "values": [{"measurement": "fluorescence lifetime", "setting": "in Cc1ccccc1", "value": 21, "unit": "ns"}]}, {"smiles": "CCC1(CC)c2ccccc2-c2c1c1c(c3c2C(CC)(CC)c2cc(N(c4ccccc4)c4ccccc4)ccc2-3)C(CC)(CC)c2cc(N(c3ccccc3)c3ccccc3)ccc2-1", "values": [{"measurement": "fluorescence lifetime", "setting": "in C1CCOC1", "value": 1.9, "unit": "ns"}]}, {"smiles": "CCn1c2ccccc2c2cc(C#Cc3cc(C#Cc4ccc5c(c4)c4ccccc4n5CC)nc(C#N)n3)ccc21", "values": [{"measurement": "fluorescence lifetime", "setting": "in C1CCOC1", "value": 4.26, "unit": "ns"}]}, {"smiles": "N[C@@H](Cc1ccc(O)cc1)C(=O)O", "values": [{"measurement": "fluorescence lifetime", "setting": "in O", "value": 3.27, "unit": "ns"}]}, {"smiles": "COc1ccc2cc(/C=C/c3ccc([N+](=O)[O-])cc3)c(=O)oc2c1", "values": [{"measurement": "fluorescence lifetime", "setting": "in CC#N", "value": 1.23, "unit": "ns"}]}, {"smiles": "CC(C)(C)C#Cc1ccc2c3cccc4cccc(c5cccc1c52)c43", "values": [{"measurement": "fluorescence lifetime", "setting": "in C1CCCCC1", "value": 4.3, "unit": "ns"}]}, {"smiles": "CCCCC(CC)COc1ccc2nc(-c3ccc(-c4ccc(N(C)C)cc4)s3)sc2c1", "note": "(stereo not drawn)", "values": [{"measurement": "fluorescence lifetime", "setting": "in ClCCl", "value": 2.28, "unit": "ns"}]}]}
